According to ChEMBL document CHEMBL5385932, “Highly Concentrated Linear Guanidine Amides from the Marine Sipunculid Phascolosoma granulatum” (J Nat Prod, 2024):
The source made the active and inactive calls. No cut-off for these calls is given here.

Key:
[1] = tested on: A549; experiment: Cytotoxicity against human A549 cells assessed as effect on cell viability at 20 ug/ml by MTT assay; assay type: functional, cell-based; settings: dose 20.0 µg/ml
[2] = tested on: A2058; experiment: Cytotoxicity against human A2058 cells assessed as effect on cell viability at 20 ug/ml by MTT assay; assay type: functional, cell-based; settings: dose 20.0 µg/ml
[3] = tested on: HepG2; experiment: Cytotoxicity against human HepG2 cells assessed as effect on cell viability at 20 ug/ml by MTT assay; assay type: functional, cell-based; settings: dose 20.0 µg/ml
[4] = tested on: MCF7; experiment: Cytotoxicity against human MCF7 cells assessed as effect on cell viability at 20 ug/ml by MTT assay; assay type: functional, cell-based; settings: dose 20.0 µg/ml
[5] = tested on: MIA PaCa-2; experiment: Cytotoxicity against human MIA PaCa-2 cells assessed as effect on cell viability at 20 ug/ml by MTT assay; assay type: functional, cell-based; settings: dose 20.0 µg/ml
[6] = tested on: Candida albicans; experiment: Antifungal activity against Candida albicans ATCC64124 assessed as effect on fungal growth at 64 ug/ml; assay type: functional, organism-based; settings: dose 64.0 µg/ml
[7] = tested on: Nakaseomyces glabratus; experiment: Antifungal activity against Candida glabrata ATCC2001 assessed as effect on fungal growth at 64 ug/ml; assay type: functional, organism-based; settings: dose 64.0 µg/ml
[8] = tested on: Pichia kudriavzevii; experiment: Antifungal activity against Candida krusei ATCC6258 assessed as effect on fungal growth at 64 ug/ml; assay type: functional, organism-based; settings: dose 64.0 µg/ml
[9] = tested on: Candida parapsilosis; experiment: Antifungal activity against Candida parapsilosis ATCC22019 assessed as effect on fungal growth at 64 ug/ml; assay type: functional, organism-based; settings: dose 64.0 µg/ml
[10] = tested on: Candida tropicalis; experiment: Antifungal activity against Candida tropicalis ATCC750 assessed as effect on fungal growth at 64 ug/ml; assay type: functional, organism-based; settings: dose 64.0 µg/ml
[11] = tested on: Aspergillus fumigatus; experiment: Antifungal activity against Aspergillus fumigatus ATCC46645 assessed as effect on fungal growth at 64 ug/ml; assay type: functional, organism-based; settings: dose 64.0 µg/ml
[12] = tested on: Artemia salina; experiment: Toxicity in brine shrimp assessed as lethality at 500 uM measured after 24 to 48 hrs by microscopy; assay type: organism-based; settings: in vivo, time 24-48 hrs
[13] = tested on: Acinetobacter baumannii; experiment: Antibacterial activity against Acinetobacter baumannii ATCC19606 assessed as effect on bacterial growth at 64 ug/ml; assay type: functional, organism-based; settings: dose 64.0 µg/ml
[14] = tested on: Escherichia coli; experiment: Antibacterial activity against Escherichia coli ATCC25922 assessed as effect on bacterial growth at 64 ug/ml; assay type: functional, organism-based; settings: dose 64.0 µg/ml
[15] = tested on: Staphylococcus aureus; experiment: Antibacterial activity against methicillin-susceptible Staphylococcus aureus ATCC29213 assessed as effect on bacterial growth at 64 ug/ml; assay type: functional, organism-based; settings: dose 64.0 µg/ml

| SMILES | Activity [1] | Activity [2] | Activity [3] | Activity [4] | Activity [5] | Activity [6] | Activity [7] | Activity [8] | Activity [9] | Activity [10] | Activity [11] | Activity [12] | Activity [13] | Activity [14] | Activity [15] |
| --- | --- | --- | --- | --- | --- | --- | --- | --- | --- | --- | --- | --- | --- | --- | --- |
| C/C(=C/CCC(C)C)C(=O)NCCCCNC(=N)N.O=C(O)C(F)(F)F | inactive | inactive | inactive | inactive | inactive | inactive | inactive | inactive | inactive | inactive | inactive | Non-Toxic | inactive | inactive | inactive |
| CC(C)CC[C@@H](C)C(=O)NCCCCNC(=N)N.O=C(O)C(F)(F)F | inactive | inactive | inactive | inactive | inactive | inactive | inactive | inactive | inactive | inactive | inactive | Non-Toxic | inactive | inactive | inactive |
| CC(C)CC(=O)N(C)CCCCNC(=N)N.O=C(O)C(F)(F)F | inactive | inactive | inactive | inactive | inactive | – | – | – | – | – | – | Non-Toxic | – | – | – |
| CC(C)C[C@H](O)CC/C=C\CNC(=O)CCNC(=N)N.O=C(O)C(F)(F)F | inactive | inactive | inactive | inactive | inactive | – | – | – | – | – | – | Non-Toxic | – | – | – |
| CC(C)CC[C@@H](C)C(=O)N(C)CCCCNC(=N)N.O=C(O)C(F)(F)F | inactive | inactive | inactive | inactive | inactive | inactive | inactive | inactive | inactive | inactive | inactive | Non-Toxic | inactive | inactive | inactive |
| CC(C)CC[C@@H](C)C(=O)NCCCNC(=N)N.O=C(O)C(F)(F)F | inactive | inactive | inactive | inactive | inactive | inactive | inactive | inactive | inactive | inactive | inactive | Non-Toxic | inactive | inactive | inactive |
